Biological target: T1, IGF-1R (Homo sapiens, UniProt P08069)
T1 construct: purchased Upstate Co. 14-465
Assay: IGF-1R inhibitory activity (kinase reaction, time-resolved fluoroimmunoassay)
Type: biochemical
Settings: test compound 10 μmol/L
Description: The IGF-1R inhibitory activity was measured in the following manner.
As IGF-1R, active recombinant enzyme (Catalog No. 14-465) purchased from Upstate Co., was used. To 96 well plate (FIA-PLATE BLACK 96 well FALT-BOTTOM HIGH BINDING, Greiner Bio-one, Catalog No. 655077) coated with NeutroAvidin (Pierce, Catalog No. 31000), biotinylated polyglutamic acid-tyrosine peptide (Nihon Schering K.K., Catalog No. 61GT0BAA) was immobilized and then blocked with 0.25% gelatin to be used as a plate for measuring the kinase reaction. Separately was prepared a solution containing at final concentrations, IGF-1R (200 μg/L), Tris.HCl(pH 7.5)(20 mmol/L), Na3VO4(0.1 mmol/L), MgCl2(1 mmol/L), MnCl2(10 mmol/L), ATP(10 mmol/L), 2-mercaptoethanol (0.04%), BSA(Bovine Serum Albumin) (0.1%), DMSO(0.1%), test compound (10 μmol/L). The solution (each 50 μL) was added to the well of the plate for measuring the kinase reaction and then, enzyme reaction was performed for 30 minutes at 24° C. The plate was washed with TBS-T [10 mmol/L Tris Cl (pH 7.5), 150 mmol/L NaCl, 0.05% Tween 20 (Bio-Rad, Catalog No. 170-6531)] 4 times, then reacted with europium-labeled anti-phosphotyrosine antibody, further washed with TBS-T 4 times and then, measured with time-resolved fluoroimmunoassay (excitation wavelength 340 nm, measuring wavelength 615 nm). The value of a well to which the test compound had not been added was considered as 100% and that of a well where the enzyme and the test compound had not been added was considered as 0%. The relative activity (%) of the well which was added with enzyme and the test compound was measured and by subtracting the calculated value from 100, IGF-1R inhibitory activity of the test compound (%) was determined.

[1] = IGF-1R active recombinant enzyme

T1 sequence (P08069 959-1367 limits assumed): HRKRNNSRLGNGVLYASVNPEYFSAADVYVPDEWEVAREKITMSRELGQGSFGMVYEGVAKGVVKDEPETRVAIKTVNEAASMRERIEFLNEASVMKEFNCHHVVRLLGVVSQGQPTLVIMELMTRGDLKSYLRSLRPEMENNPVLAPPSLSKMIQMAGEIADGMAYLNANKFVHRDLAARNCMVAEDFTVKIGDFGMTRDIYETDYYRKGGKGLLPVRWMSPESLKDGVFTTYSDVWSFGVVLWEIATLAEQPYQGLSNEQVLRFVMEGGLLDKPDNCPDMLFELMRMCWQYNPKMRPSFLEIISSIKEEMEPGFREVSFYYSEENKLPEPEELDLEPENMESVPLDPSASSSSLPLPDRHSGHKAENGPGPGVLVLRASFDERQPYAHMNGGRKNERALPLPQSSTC

| SMILES | inhibition at 10 µM [1] [%] | other results |
| --- | --- | --- |
| C(=C\c1n[nH]c2ccccc12)/c1ccccc1NCc1ccccc1 [Compound 26, (E)-N-benzyl-N-{2-[2-(1H-indazol-3-yl)vinyl]phenyl}amine] | 67.8 | – |
| O=C(Nc1ccccc1/C=C/c1n[nH]c2ccccc12)c1cc2ccccc2o1 [Compound 49, (E)-N-{2-[2-(1H-indazol-3-yl)vinyl]phenyl}benzofuran-2-carboxamide] | 103 | – |
| O=C(Nc1ccccc1/C=C/c1n[nH]c2ccccc12)c1cc2ccccc2[nH]1 [Compound 50, (E)-N-{2-[2-(1H-indazol-3-yl)vinyl]phenyl}-1H-indole-2-carboxamide] | 98.5 | – |
| O=C(Nc1ccccc1/C=C/c1n[nH]c2ccccc12)c1ccc([N+](=O)[O-])s1 [Compound 51, (E)-N-{2-[2-(1H-indazol-3-yl)vinyl]phenyl}-5-nitrothiophene-2-carboxamide] | 100 | – |
| Cc1oncc1C(=O)Nc1ccccc1/C=C/c1n[nH]c2ccccc12 [Compound 72, (E)-N-{2-[2-(1H-indazol-3-yl)vinyl]phenyl}-5-methylisoxazole-4-carboxamide] | 82.7 | – |
| O=C(Nc1ccccc1/C=C/c1n[nH]c2ccccc12)c1ccccc1[N+](=O)[O-] [Compound 74, (E)-N-{2-[2-(1H-indazol-3-yl)vinyl]phenyl}-2-nitrobenzamide] | 97.6 | – |
| CN(C)/C=N/c1ccccc1C=Cc1n[nH]c2ccccc12 [Compound 75, (E)-N-{2-[2-(1H-indazol-3-yl)vinyl]phenyl}-N,N-dimethylformamidine] | – | inhibitory activity (%) at 10 μmol/L [1]: 90.4% |
| O=C(Nc1ccccc1/C=C/c1n[nH]c2ccccc12)c1ccc(CO)cc1 [Compound 79, (E)-4-hydroxymethyl-N-{2-[2-(1H-indazol-3-yl)vinyl]phenyl}benzamide] | 97.2 | – |
| O=C(Nc1ccccc1/C=C/c1n[nH]c2ccccc12)c1ccc(CN2CCOCC2)cc1 [Compound 80, (E)-N-{2-[2-(1H-indazol-3-yl)vinyl]phenyl}-4-(morpholin-4-ylmethyl)benzamide] | 96.6 | – |
| O=C(Nc1ccccc1/C=C/c1n[nH]c2ccccc12)c1ccc([N+](=O)[O-])cc1Cl [Compound 81, (E)-2-chloro-N-{2-[2-(1H-indazol-3-yl)vinyl]phenyl}-4-nitrobenzamide] | – | inhibition at 10 µM: 60.7% |
| CSc1ccc(C(=O)Nc2ccccc2/C=C/c2n[nH]c3ccccc23)cc1 [Compound 82, (E)-N-{2-[2-(1H-indazol-3-yl)vinyl]phenyl}-4-methylsulphanylbenzamide] | – | inhibition at 10 µM: 84.7% |
| COc1cccc(/C=C/c2n[nH]c3ccccc23)c1N [Compound 93, (E)-2-[2-(1H-indazol-3-yl)vinyl]-6-methoxyphenylamine] | – | inhibition at 10 µM: 70.6% |
| Cc1ccsc1C(=O)Nc1cc(C(=O)NCCO)ccc1/C=C/c1n[nH]c2ccccc12 [Compound 114, (E)-N-{5-[N-(2-hydroxyethyl)carbamoyl]-2-[2-(1H-indazol-3-yl)vinyl]phenyl}-3-methylthiophene-2-carboxamide] | – | inhibition at 10 µM: 92% |
| COCc1ccc(/C=C/c2n[nH]c3ccccc23)c(NC(=O)c2sccc2C)c1 [Compound 121, (E)-N-{2-[2-(1H-indazol-3-yl)vinyl]-5-(methoxymethyl)phenyl}-3-methylthiophene-2-carboxamide] | – | inhibition at 10 µM: 98.6% |
| Cn1cccc1C(=O)Nc1cc(C(=O)N2CCOCC2)ccc1/C=C/c1n[nH]c2ccccc12 [Compound 123, (E)-N-{2-[2-(1H-indazol-3-yl)vinyl]-5-(morpholin-4-ylcarbonyl)phenyl}-1-methylpyrrole-2-carboxamide] | – | inhibition at 10 µM: 95.9% |
| CCN(CC)C(=O)c1ccc(/C=C/c2n[nH]c3ccccc23)c(NC(=O)c2sccc2C)c1.Cl [Compound 124, (E)-N-{5-(N,N-diethylcarbamoyl)-2-[2-(1H-indazol-3-yl)vinyl]phenyl}-3-methylthiophene-2-carboxamide hydrochloride] | – | inhibitory activity (%) at 10 μmol/L: 98.9% |
| Cc1ccsc1C(=O)Nc1cc(C(=O)N(C)C)ccc1/C=C/c1n[nH]c2ccccc12.Cl [Compound 125, (E)-N-{5-(N,N-dimethylcarbamoyl)-2-[2-(1H-indazol-3-yl)vinyl]phenyl}-3-methylthiophene-2-carboxamide hydrochloride] | – | inhibitory activity (%) at 10 μmol/L: 100.9% |
| Cc1ccsc1C(=O)Nc1cc(C(=O)N2CCN(C)CC2)ccc1/C=C/c1n[nH]c2ccccc12 [Compound 126, (E)-N-{2-[2-(1H-indazol-3-yl)vinyl]-5-(4-methylpiperazin-1-ylcarbonyl)phenyl}-3-methylthiophene-2-carboxamide] | – | inhibition at 10 µM: 98.8% |

| SMILES | inhibition at 10 µM [1] [%] | other results |
| --- | --- | --- |
| COC1CCN(C(=O)c2ccc(/C=C/c3n[nH]c4ccccc34)c(NC(=O)c3sccc3C)c2)CC1.Cl [Compound 127, (E)-N-{2-[2-(1H-indazol-3-yl)vinyl]-5-(4-methoxypiperidin-1-ylcarbonyl)phenyl}-3-methylthiophene-2-carboxamide hydrochloride] | – | inhibitory activity (%) at 10 μmol/L: 101.9% |
| Cc1ccsc1C(=O)Nc1cc(C(=O)N2CCN(C)CC2)ccc1/C=C/c1n[nH]c2ccccc12.Cl [Compound 128, (E)-N-{2-[2-(1H-indazol-3-yl)vinyl]-5-(4-methylpiperazine-1-ylcarbonyl)phenyl}-3-methylthiophene-2-carboxamide hydrochloride] | – | inhibitory activity (%) at 10 μmol/L: 98.8% |
| Cc1ccsc1C(=O)Nc1cc(C(=O)N2CCC3(CC2)OCCO3)ccc1/C=C/c1n[nH]c2ccccc12.Cl [Compound 129, (E)-N-{5-(1,4-dioxa-8-azaspiro[4,5]decane-8-carbonyl)-2-[2-(1H-indazol-3-yl)vinyl]phenyl}-3-methylthiophene-2-carboxamide hydrochloride] | – | inhibitory activity (%) at 10 μmol/L: 99.9% |
| COc1ccccc1/C=C/c1n[nH]c2ccccc12 [Compound 135, (E)-3-[2-(2-methoxyphenyl)vinyl]-1H-indazole] | 86.6 | – |
| O=C(Nc1nc[nH]n1)c1ccccc1/C=C/c1n[nH]c2ccccc12 [Compound 139, (E)-2-[2-(1H-indazol-3-yl)vinyl]-N-(1H-[1,2,4]triazol-3-yl)benzamide] | 93.9 | – |
| Cc1csc(NC(=O)c2ccccc2/C=C/c2n[nH]c3ccccc23)n1 [Compound 143, (E)-2-[2-(1H-indazol-3-yl)vinyl]-N-(4-methylthiazol-2-yl)benzamide] | 94.9 | – |
| CSc1ccccc1/C=C/c1n[nH]c2ccccc12 [Compound 146, (E)-3-[2-(2-methylsulfanylphenyl)vinyl]-1H-indazole] | 78.3 | – |
| C(=C\c1cccc2nc(-c3cccs3)oc12)/c1n[nH]c2ccccc12 [Compound 149, (E)-7-[2-(1H-indazol-3-yl)vinyl]-2-(thiophen-2-yl)benzoxazole] | 70 | – |
| O=C1c2ccccc2C(=O)N1c1cccc(Cl)c1/C=C/c1n[nH]c2ccccc12 [Compound 154, (E)-2-{3-chloro-2-[2-(1H-indazol-3-yl)vinyl]phenyl}isoindole-1,3-dione] | 97.1 | – |
| C(=Cc1n[nH]c2ccccc12)c1ccccc1Nc1cnccn1 [Compound 155, N-{2-[2-(1H-indazol-3-yl)vinyl]phenyl}-2-pyrazylamine] | – | inhibitory activity (%) at 10 μmol/L [1]: 97.9% |
| Cc1cc(C(=O)Nc2ccccc2/C=C/c2n[nH]c3ccccc23)ccc1[N+](=O)[O-] [Compound 157, (E)-N-{2-[2-(1H-indazol-3-yl)vinyl]phenyl}-3-methyl-4-nitrobenzamide] | 96 | – |
| Cc1ccsc1/C=N/c1ccccc1C=Cc1n[nH]c2ccccc12 [Compound 160, (E)-N-{2-[2-(1H-indazol-3-yl)vinyl]phenyl}(3-methylthiophen-2-ylmethylene)amine] | 98.4 | – |
| C(=C\c1n[nH]c2ccccc12)/c1ccccc1-n1cccc1 [Compound 162, (E)-3-{2-[2-(pyrrol-1-yl)phenyl]vinyl}-1H-indazole] | 102 | – |
| C(=C\c1n[nH]c2ccccc12)/c1ccccc1Nc1ncccn1 [Compound 163, (E)-N-{2-[2-(1H-indazol-3-yl)vinyl]phenyl}-2-pyrimidylamine] | 100 | – |
| C(=C\c1n[nH]c2ccccc12)/c1ccccc1Nc1ccccn1 [Compound 164, (E)-N-{2-[2-(1H-indazol-3-yl)vinyl]phenyl}-2-pyridylamine] | 99.1 | – |
| CCOC(=O)c1cnc(Nc2ccccc2/C=C/c2n[nH]c3ccccc23)s1 [Compound 165, (E)-2-{2-[2-(1H-indazol-3-yl)vinyl]phenylamino}thiazole-5-carboxylic acid ethylester] | 93.8 | – |
| O=Cc1ccn(-c2ccccc2/C=C/c2n[nH]c3ccccc23)c1 [Compound 167, (E)-1-{2-[2-(1H-indazol-3-yl)vinyl]phenyl}-1H-pyrrole-3-carbaldehyde] | 94.1 | – |
| CCOC(=O)c1csc(Nc2ccccc2/C=C/c2n[nH]c3ccccc23)n1 [Compound 169, (E)-2-{2-[2-(1H-indazol-3-yl)vinyl]phenylamino}thiazole-4-carboxylic acid ethyl ester] | 88.4 | – |
